The record followed here is patent publication US8129527B2, “Analogs of dehydrophenylahistins and their therapeutic use” (Nereus Pharmacuticals, Inc., priority 2006, dated 2012).

The subject of this assay is HL-60/MX-2 (Mitoxantrone-Resistant). The experiment in a line: Drug resistant cell line pair, cytotoxicity (Example 10B). The note with it: Homo sapiens, HL60/MX2; HL-60 Resistant (HL-60/MX-2). It counts as cell-based, human. From the text:
2) Human Acute Promyelocytic Leukemia Cell Line Pair: HL-60 (Mitoxantrone-Sensitive) and HL-60/MX-2 (Mitoxantrone-Resistant)

Each structure is given as a SMILES string.

Usually IC50 stands for the concentration needed to halve the response being measured. Low readings indicate greater potency, high ones weaker potency.

Regarding `CC(C)(C)c1[nH]cnc1/C=c1\[nH]c(=O)/c(=C/c2ccccc2)[nH]c1=O` [KPU-2, tBu-dehydro-PLH], the IC50 worked out at 8.17 nM.
